# Patent US9908897B2, “Spirocyclic derivatives” (CHRONOS THERAPEUTICS LIMITED, priority 2014, dated 2018)
# Tests used:
# [1] = target: human dopamine transporter (DAT) (Homo sapiens (Human), UniProt Q01959); assay: Scintillation Proximity Assay (SPA) competition binding, human DAT; conditions: recombinant hDAT-CHO membranes, [3H]WIN-35,428
# Source text: (§1) Measure of Affinity to the Human Transporters DAT, NET and SERT
# In the context of the present invention pKi values (corresponding to the antilogarithm of Ki) are used instead of Ki; pKi are only estimated to be accurate to about 0.3 log unit.
# (§2) Scintillation Proximity Assay (SPA) for Human DAT, NET and SERT Binding
# (§3) Chinese Hamster Ovary (CHO) cells stably expressing either human DAT (hDAT-CHO) or human NET (hNET-CHO) or human SERT (hSERT-CHO) are used for the membrane preparations for radioligand binding assays using Scintillation proximity Assay (SPA) technique. Each cell line is cultured independently in F-12K Nutrient Mixture containing 10% of Fetal Bovine Serum (FBS) supplemented with 450 μg/ml G-418. When cells are at 70-80% of confluence 3 mM Na Butyrate was added to the cell culture medium. After 24 h of incubation, the culture medium was removed and the cells detached with Versene (DAT) or by scraping (NET and SERT). Cell suspension is centrifuged at 41,000 g for 10 minutes at 4° C. The resultant pellets are re-suspended in 15 volumes of Ice-cold buffer (20 mM HEPES, 145 mM NaCl, 5 mM KCl, pH7.3), homogenized using an Ultra Turrax homogeniser and centrifuged as before. The resultant membrane pellets are re-suspended in up to 15 volume of ice-cold buffer, incubated for 20 minutes at 37-C and centrifuged as before at 41,000 g. The final membrane pellets are re-suspended into 5-10 volumes of ice-cold buffer, dispensed into 0.5 ml aliquots and stored at −80° C. until use. Protein concentration for each preparation is determined using Bio-Rad Protein Assay kit.
# (§4) The affinity of the compounds of the invention to the human DAT or NET or SERT transporters is assessed by using the [^3H]WIN-35,428 or [^3H]nisoxetine or [^3H]citalopram binding assays in recombinant human DAT, NET and SERT membranes with the SPA technology. The final assay volume is 50 μL in 384 well plates.
# (§5) Briefly, 0.5 μL of test compound in neat DMSO or 0.5 μL of DMSO for total binding (TB) or 0.5 μL of indatraline 1 mM (10 μM final concentration) for non specific binding (NSB) are added to the assay plate. 50 μL of the SPA mixture is added to each well, containing: 30 μg/mL or 10 μg/mL or 25 μg/mL DAT, NET, SERT membranes, respectively; 5 nM [^3H]WIN-35,428 or 5 nM [^3H]nisoxetine or 1 nM [^3H]citalopram, for DAT, NET, SERT assay, respectively; 2.5 mg/mL or 1 mg/mL or 4 mg/mL WGA-PVT SPA beads (PerkinElmer RPNQ0001, for DAT, NET, SERT assay, respectively. All components are added to Assay Buffer (20 mM HEPES pH 7.4, 145 mM NaCl, 5 mM KCl, 0.01% Pluronic F-127). 0.02% BSA was used for DAT binding only. Plates are sealed with Topseal A and centrifuged 1 min, 800 rpm. Plates are loaded into a 1450 Microbeta TriLux (Perkin-Elmer) plate reader and the radioactivity counted after at least 4 hrs or overnight incubation at room temperature. Curve fitting and IC50 estimations are performed using a four parameter model in XLfit (IDBS, Guilford, UK) for Microdoft Excel (Microsoft, Redmond, Wash.).
# [2] = target: human norepinephrine transporter (NET) (Homo sapiens (Human), UniProt P23975); assay: Scintillation Proximity Assay (SPA) competition binding, human NET; conditions: recombinant hNET-CHO membranes, [3H]nisoxetine
# Chain of human norepinephrine transporter (NET) (P23975 whole entry): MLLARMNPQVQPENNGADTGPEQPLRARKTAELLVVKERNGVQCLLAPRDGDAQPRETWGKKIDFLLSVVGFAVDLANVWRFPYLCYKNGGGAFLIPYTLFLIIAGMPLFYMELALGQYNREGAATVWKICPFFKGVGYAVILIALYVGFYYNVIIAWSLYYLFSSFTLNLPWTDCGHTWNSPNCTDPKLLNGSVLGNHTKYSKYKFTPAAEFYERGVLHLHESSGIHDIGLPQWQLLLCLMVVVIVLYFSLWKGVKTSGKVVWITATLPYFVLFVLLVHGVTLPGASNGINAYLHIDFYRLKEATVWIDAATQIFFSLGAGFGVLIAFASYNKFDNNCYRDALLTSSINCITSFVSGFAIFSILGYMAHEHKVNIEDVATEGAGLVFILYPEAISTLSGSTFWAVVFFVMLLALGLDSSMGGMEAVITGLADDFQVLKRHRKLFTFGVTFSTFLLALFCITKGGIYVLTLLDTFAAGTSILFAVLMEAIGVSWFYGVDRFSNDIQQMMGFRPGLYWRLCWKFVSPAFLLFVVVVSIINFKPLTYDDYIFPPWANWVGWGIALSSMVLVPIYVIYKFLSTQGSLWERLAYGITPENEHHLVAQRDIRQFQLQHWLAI
# Source text: as §1
# (§6) Affinity is expressed in terms of inhibition constant (Ki) of the compounds of the invention for DAT, NET and SERT, and it is typically calculated from the IC50 values obtained in competition experiments using Cheng and Prusoff equation (Cheng and Prusoff, Biochem. Pharmacol. 22:3099, 1973). In the context of the present invention pKi values (corresponding to the antilogarithm of Ki) are used instead of Ki; pKi are only estimated to be accurate to about 0.3 log unit.
# as §2, §3, §4, §5
# [3] = target: human serotonin transporter (SERT) (Homo sapiens (Human), UniProt P31645); assay: Scintillation Proximity Assay (SPA) competition binding, human SERT; conditions: recombinant hSERT-CHO membranes, [3H]citalopram
# Chain of human serotonin transporter (SERT) (P31645 whole entry): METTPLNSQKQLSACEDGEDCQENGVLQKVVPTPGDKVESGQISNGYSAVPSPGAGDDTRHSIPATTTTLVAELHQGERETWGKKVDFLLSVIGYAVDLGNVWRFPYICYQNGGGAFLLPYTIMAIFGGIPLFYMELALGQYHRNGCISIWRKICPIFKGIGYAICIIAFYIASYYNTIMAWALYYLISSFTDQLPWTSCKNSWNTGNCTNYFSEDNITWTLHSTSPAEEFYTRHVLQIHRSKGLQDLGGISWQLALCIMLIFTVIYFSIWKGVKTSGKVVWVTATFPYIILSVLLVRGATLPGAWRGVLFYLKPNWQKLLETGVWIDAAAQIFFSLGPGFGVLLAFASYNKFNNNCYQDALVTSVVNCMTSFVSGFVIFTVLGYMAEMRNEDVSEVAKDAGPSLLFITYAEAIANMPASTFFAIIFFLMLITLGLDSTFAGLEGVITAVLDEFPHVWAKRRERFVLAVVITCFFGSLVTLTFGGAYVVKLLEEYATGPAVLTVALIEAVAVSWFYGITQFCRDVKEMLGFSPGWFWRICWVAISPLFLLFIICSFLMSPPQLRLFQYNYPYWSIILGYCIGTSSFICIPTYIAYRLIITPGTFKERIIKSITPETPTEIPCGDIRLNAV
# Source text: as §1, §6, §2, §3, §4, §5
# Chain of human dopamine transporter (DAT) (Q01959 whole entry): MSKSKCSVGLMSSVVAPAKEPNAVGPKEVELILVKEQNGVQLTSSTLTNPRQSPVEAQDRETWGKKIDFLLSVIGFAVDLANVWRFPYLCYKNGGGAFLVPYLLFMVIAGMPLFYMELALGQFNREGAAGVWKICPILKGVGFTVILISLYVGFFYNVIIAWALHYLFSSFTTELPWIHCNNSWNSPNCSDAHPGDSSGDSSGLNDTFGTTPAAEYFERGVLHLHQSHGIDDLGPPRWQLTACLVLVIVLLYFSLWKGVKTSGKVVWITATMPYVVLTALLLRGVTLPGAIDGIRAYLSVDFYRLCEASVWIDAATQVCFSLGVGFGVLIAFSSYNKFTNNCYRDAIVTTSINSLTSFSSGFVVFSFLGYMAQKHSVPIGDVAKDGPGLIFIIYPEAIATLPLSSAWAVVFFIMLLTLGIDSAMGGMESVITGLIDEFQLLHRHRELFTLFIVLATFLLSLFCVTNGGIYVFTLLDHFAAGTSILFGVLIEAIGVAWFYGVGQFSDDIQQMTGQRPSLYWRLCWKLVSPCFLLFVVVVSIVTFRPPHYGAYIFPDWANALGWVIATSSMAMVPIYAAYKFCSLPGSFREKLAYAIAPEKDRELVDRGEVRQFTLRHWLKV
Compound,pIC50 DAT [1],pIC50 NET [2],pIC50 SERT [3],IC50 [3] [µM]
"Cc1cc(Oc2ccccc2C)nc(N2CCC3(CC2)CNCCO3)n1.Cl [Example 51, 9-[4-methyl-6-(2-methylphenoxy)pyrimidin-2-yl]-1-oxa-4,9-diazaspiro[5.5]undecane hydrochloride]",7.33,5.78,5.21,
"COc1ccccc1Oc1cc(C)nc(N2CCC3(CC2)CNCCO3)n1.Cl [Example 52, 9-[4-(2-methoxyphenoxy)-6-methylpyrimidin-2-yl]-1-oxa-4,9-diazaspiro[5.5]undecane hydrochloride]",5.96,5.30,,> 100
"Cc1cc(Oc2cccnc2)nc(N2CCC3(CC2)CNCCO3)n1.Cl [Example 53, 9-[4-methyl-6-(pyridin-3-yloxy)pyrimidin-2-yl]-1-oxa-4,9-diazaspiro[5.5]undecane hydrochloride]",6.63,5.21,4.56,
"Cc1cnc(N2CCC3(CC2)CNCCO3)nc1Oc1cccc(F)c1.Cl [Example 54, 9-[4-(3-fluorophenoxy)-5-methylpyrimidin-2-yl]-1-oxa-4,9-diazaspiro[5.5]undecane hydrochloride]",6.96,5.34,5.00,
"Cl.Fc1cccc(Oc2cc(C(F)(F)F)nc(N3CCC4(CC3)CNCCO4)n2)c1 [Example 56, 9-[4-(3-fluorophenoxy)-6-(trifluoromethyl)pyrimidin-2-yl]-1-oxa-4,9-diazaspiro[5.5]undecane hydrochloride]",8.42,6.37,5.77,
"Cl.Fc1ccc(Oc2cc(C(F)(F)F)nc(N3CCC4(CC3)CNCCO4)n2)cc1 [Example 58, 9-[4-(4-fluorophenoxy)-6-(trifluoromethyl)pyrimidin-2-yl]-1-oxa-4,9-diazaspiro[5.5]undecane hydrochloride]",7.53,5.52,7.31,
"Cl.FC(F)(F)c1cc(Oc2cccs2)nc(N2CCC3(CC2)CNCCO3)n1 [Example 60, 9-[4-(thiophen-2-yloxy)-6-(trifluoromethyl)pyrimidin-2-yl]-1-oxa-4,9-diazaspiro[5.5]undecane hydrochloride]",7.34,5.75,5.83,
"COc1cc(Cc2ccccc2)nc(N2CCC3(CC2)CNCCO3)n1.Cl [Example 61, 9-(4-benzyl-6-methoxypyrimidin-2-yl)-1-oxa-4,9-diazaspiro[5.5]undecane hydrochloride]",6.67,5.29,4.89,
"CSc1cc(Oc2cccc(F)c2)nc(N2CCC3(CC2)CNCCO3)n1.Cl [Example 63, 9-[4-(3-fluorophenoxy)-6-(methylsulfanyl)pyrimidin-2-yl]-1-oxa-4,9-diazaspiro[5.5]undecane hydrochloride]",8.07,6.34,5.15,
"CSc1cc(N2CCC3(CC2)CNCCO3)nc(Oc2cccc(F)c2)n1.Cl [Example 64, 9-[2-(3-fluorophenoxy)-6-(methylsulfanyl)pyrimidin-4-yl]-1-oxa-4,9-diazaspiro[5.5]undecane hydrochloride]",6.38,5.35,4.86,
"Cl.Fc1cccc(Oc2cc(C(F)(F)F)nc(N3CCOC4(CCNCC4)C3)n2)c1 [Example 67, 4-[4-(3-fluorophenoxy)-6-(trifluoromethyl)pyrimidin-2-yl]-1-oxa-4,9-diazaspiro[5.5]undecane hydrochloride]",7.80,6.02,5.32,
"Cl.Fc1cccc(Oc2cc(F)c(F)cc2N2CCC3(CC2)CNCC(F)(F)O3)c1 [Example 69, 9-[4,5-difluoro-2-(3-fluorophenoxy)phenyl]-2,2-difluoro-1-oxa-4,9-diazaspiro[5.5]undecane hydrochloride]",5.97,5.06,,> 100
"O=C1CNCC2(CCN(c3nc(Oc4cccc(F)c4)cc(C(F)(F)F)n3)CC2)N1 [Example 73, 9-[4-(3-fluorophenoxy)-6-(trifluoromethyl)pyrimidin-2-yl]-1,4,9-triazaspiro[5.5]undecan-2-one]",6.32,4.82,,> 100
"CN1CCNCC12CCN(c1nc(Oc3cccc(F)c3)cc(C(F)(F)F)n1)CC2 [Example 74, 9-[4-(3-fluorophenoxy)-6-(trifluoromethyl)pyrimidin-2-yl]-1-methyl-1,4,9-triazaspiro[5.5]undecane]",8.38,6.42,4.95,
"Fc1cccc(Oc2cc(C(F)(F)F)nc(N3CCC4(CC3)CNCCN4)n2)c1 [Example 75, 9-[4-(3-fluorophenoxy)-6-(trifluoromethyl)pyrimidin-2-yl]-1,4,9-triazaspiro[5.5]undecane]",8.88,6.54,5.18,
"CN1CCCNC(=O)C12CCN(c1nc(Oc3cccc(F)c3)cc(C(F)(F)F)n1)CC2 [Example 76, 3-[4-(3-fluorophenoxy)-6-(trifluoromethyl)pyrimidin-2-yl]-7-methyl-3,7,11-triazaspiro[5.6]dodecan-12-one]",7.28,4.88,,> 100
"CN1CCCNCC12CCN(c1nc(Oc3cccc(F)c3)cc(C(F)(F)F)n1)CC2 [Example 77, 3-[4-(3-fluorophenoxy)-6-(trifluoromethyl)pyrimidin-2-yl]-7-methyl-3,7,11-triazaspiro[5.6]dodecane]",8.08,6.33,5.30,
"Cl.Fc1cccc(Oc2cc(C(F)(F)F)nc(N3CCC4(CC3)COCCN4)n2)c1 [Example 78, 9-[4-(3-fluorophenoxy)-6-(trifluoromethyl)pyrimidin-2-yl]-4-oxa-1,9-diazaspiro[5.5]undecane hydrochloride]",7.94,7.32,5.17,
"Fc1cccc(Oc2cc(F)c(F)cc2N2CCCC3(CCNCC3)C2)c1 [Example 80, 2-[4,5-difluoro-2-(3-fluorophenoxy)phenyl]-2,9-diazaspiro[5.5]undecane]",6.64,5.84,6.49,
"Fc1cccc(Oc2cc(F)c(F)cc2N2CCCC3(CCCNC3)C2)c1 (stereo not drawn) [Example 81, 2-[4,5-difluoro-2-(3-fluorophenoxy)phenyl]-2,8-diazaspiro[5.5]undecane]",7.18,6.25,6.71,
"Fc1cccc(Oc2cc(F)c(F)cc2N2CCC3(CNCCC34OCCO4)C2)c1 (stereo not drawn) [Example 85, 8-[4,5-difluoro-2-(3-fluorophenoxy)phenyl]-1,4-dioxa-8,12-diazadispiro[4.0.4^6.4^5]tetradecane]",6.62,5.81,6.35,
"O=C1CCNCC12CCN(c1cc(F)c(F)cc1Oc1cccc(F)c1)C2 (stereo not drawn) [Example 86, 2-[4,5-difluoro-2-(3-fluorophenoxy)phenyl]-2,7-diazaspiro[4.5]decan-10-one]",6.87,5.81,5.65,
